From patent publication US10138207B2, “Benzomorphan analogs and the use thereof” (priority 2012, dated 2018)

Experiments:
[1] = molecular target: T1, μ-opioid receptor (Homo sapiens, UniProt P35372); assay: μ-opioid receptor [35S]GTPγS functional assay, HEK-293 or CHO cells; details: for Emax: read-out: GTPγS μ Emax
[2] = molecular target: κ opioid receptor (Homo sapiens, UniProt P41145); assay: biochemical; assay type: binding; set-up: expressed in transfected cells; host or cells: HEK 293 (in-house membrane prep); details: HEK-293 or CHO cells
[3] = molecular target: T1, μ-opioid receptor; assay: μ-opioid receptor [35S]GTPγS functional assay, U-2 OS cells; assay type: biochemical; set-up: expressed in transfected cells; host or cells: U-2 OS; details: for Emax: relative to DAMGO, read-out: GTPγS μ Emax
[4] = U-2 OS cells, read-out: GTPγS μ EC50

Sequence of κ opioid receptor (P41145 whole entry): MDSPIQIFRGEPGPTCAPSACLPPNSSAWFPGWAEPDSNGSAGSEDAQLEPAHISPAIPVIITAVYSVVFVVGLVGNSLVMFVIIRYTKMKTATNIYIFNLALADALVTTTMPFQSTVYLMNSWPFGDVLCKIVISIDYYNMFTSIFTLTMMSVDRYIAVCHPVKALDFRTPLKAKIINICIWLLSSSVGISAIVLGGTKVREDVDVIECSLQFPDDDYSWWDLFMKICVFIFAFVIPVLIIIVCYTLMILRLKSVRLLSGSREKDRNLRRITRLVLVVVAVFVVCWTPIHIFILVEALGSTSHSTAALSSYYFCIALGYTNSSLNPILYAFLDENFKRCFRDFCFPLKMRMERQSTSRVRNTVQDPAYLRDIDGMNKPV
T1 sequence (P35372 whole entry, species assumed): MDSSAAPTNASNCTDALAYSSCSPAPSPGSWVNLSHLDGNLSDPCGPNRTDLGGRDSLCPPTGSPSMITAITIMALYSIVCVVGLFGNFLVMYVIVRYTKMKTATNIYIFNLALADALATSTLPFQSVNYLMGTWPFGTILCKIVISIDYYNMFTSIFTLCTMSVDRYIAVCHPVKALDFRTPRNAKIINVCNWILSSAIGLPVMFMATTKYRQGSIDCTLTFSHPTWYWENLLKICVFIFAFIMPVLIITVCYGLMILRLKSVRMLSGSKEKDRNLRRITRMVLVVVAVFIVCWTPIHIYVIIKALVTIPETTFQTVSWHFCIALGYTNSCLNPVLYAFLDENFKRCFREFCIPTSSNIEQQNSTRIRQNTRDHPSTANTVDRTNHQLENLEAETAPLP

| Compound | EC50 [1] [µM] | Emax [1] [%] | Ki ([2]; bound in μM) [µM] | Ki [2] [µM] | EC50 ([3]; GTPγS μ EC50, U-2 OS cells) [µM] | Emax ([3]; U-2 OS cells) [%] | EC50 [3, 4] [µM] |
| --- | --- | --- | --- | --- | --- | --- | --- |
| CN1CC[C@]2(C)c3cc(O)ccc3CC1[C@@H]2CC(=O)Nc1ccccc1C(=O)O [Compound 35, 2-(2-((6S,11R)-8-hydroxy-3,6-dimethyl-1,2,3,4,5,6-hexahydro-2,6-methanobenzo[d]azocin-11-yl)acetamido)benzoic acid] | 2.57 ± 0.783 | 23 ± 0.58 | > 20 | – | – | – | – |
| CN1CC[C@]2(C)c3cc(O)ccc3C[C@@H]1[C@@H]2N(C)C(=O)c1ccc(C(=O)O)cc1 [Compound 59, 4-(((2R,6R,11R)-8-hydroxy-3,6-dimethyl-1,2,3,4,5,6-hexahydro-2,6-methanobenzo[d]azocin-11-yl)(methyl)carbamoyl)benzoic acid] | 3.44 ± 0.183 | 76.3 ± 10.2 | > 20 | – | – | – | – |
| CN1CC[C@]2(C)c3cc(O)ccc3C[C@@H]1[C@H]2COc1cncc(C(=O)O)c1 [Compound 33, 5-(((2R,6S,11S)-8-hydroxy-3,6-dimethyl-1,2,3,4,5,6-hexahydro-2,6-methanobenzo[d]azocin-11-yl)methoxy)nicotinic acid] | 2.45 ± 0.167 | 49 ± 3.67 | – | 2.84 ± 0.342 | – | – | – |
| COc1ccc2c(c1)[C@@]1(C)CCN(C)C(C2)[C@]1(O)c1cccc(C#N)c1 [Compound 37, 3-((6R,11S)-11-hydroxy-8-methoxy-3,6-dimethyl-1,2,3,4,5,6-hexahydro-2,6-methanobenzo[d]azocin-11-yl)benzonitrile] | > 20 | – | > 20 | – | – | – | – |
| COc1ccc2c(c1)[C@@]1(C)CCN(C)C(C2)[C@@]1(O)c1cccc(C#N)c1 [Compound 60, 3-((6R,11R)-11-hydroxy-8-methoxy-3,6-dimethyl-1,2,3,4,5,6-hexahydro-2,6-methanobenzo[d]azocin-11-yl)benzonitrile] | 6.09 ± 0.529 | 38.3 ± 0.88 | > 20 | – | – | – | – |
| CN1CC[C@]2(C)c3cc(O)ccc3CC1[C@@H]2CC(=O)N1CCC(C(=O)O)CC1 [Compound 72, 1-(2-((6S,11R)-8-hydroxy-3,6-dimethyl-1,2,3,4,5,6-hexahydro-2,6-methanobenzo[d]azocin-11-yl)acetyl)piperidine-4-carboxylic acid] | 4.89 ± 0.508 | 70.3 ± 8.33 | – | 14.8 | – | – | – |
| CN1CC[C@]2(C)c3cc(O)ccc3CC1[C@@H]2CC(=O)N1CCC[C@H]1C(=O)O [Compound 55, (2S)-1-(2-((6S,11R)-8-hydroxy-3,6-dimethyl-1,2,3,4,5,6-hexahydro-2,6-methanobenzo[d]azocin-11-yl)acetyl)pyrrolidine-2-carboxylic acid] | 5.91 ± 0.422 | 71 ± 8.08 | > 20 | – | – | – | – |
| CN1CC[C@]2(C)c3cc(O)ccc3CC1[C@@H]2C(=O)Nc1ccc(C(=O)O)cc1 [Compound 52, 4-((6S,11R)-8-hydroxy-3,6-dimethyl-1,2,3,4,5,6-hexahydro-2,6-methanobenzo[d]azocine-11-carboxamido)benzoic acid] | 1.03 ± 0.0731 | 72.3 ± 3.48 | > 20 | – | – | – | – |
| COC(=O)c1cccc([C@@]2(O)C3Cc4ccc(OC)cc4[C@@]2(C)CCN3C)c1 [Compound 64, methyl 3-((6R,11S)-11-hydroxy-8-methoxy-3,6-dimethyl-1,2,3,4,5,6-hexahydro-2,6-methanobenzo[d]azocin-11-yl)benzoate] | > 20 | – | – | 12.4 | – | – | – |
| CN1CC[C@]2(C)c3cc(O)ccc3CC1C2N(C)C(=O)Nc1ccc(C(=O)O)cc1 (stereo in doubt) [Compound 45, 4-(3-((2R,6R,11S)-8-hydroxy-3,6-dimethyl-1,2,3,4,5,6-hexahydro-2,6-methanobenzo[d]azocin-11-yl)-3-methylureido)benzoic acid] | 3.85 ± 0.839 | 17 ± 3.06 | > 20 | – | – | – | – |
| COc1ccc2c(c1)[C@@]1(C)CCN(C)C(C2)[C@]1(O)c1cccc(-c2nnn[nH]2)c1 [Compound 66, (6R,11S)-11-(3-(1H-tetrazol-5-yl)phenyl)-8-methoxy-3,6-dimethyl-1,2,3,4,5,6-hexahydro-2,6-methanobenzo[d]azocin-11-ol] | 6.61 ± 0.199 | 20.7 ± 1.33 | > 20 | – | – | – | – |
| CN1CC[C@]2(C)c3cc(O)ccc3CC1[C@@H]2COc1cc(C(N)=O)ccn1 [Compound 53, 2-(((6S,11R)-8-hydroxy-3,6-dimethyl-1,2,3,4,5,6-hexahydro-2,6-methanobenzo[d]azocin-11-yl)methoxy)isonicotinamide] | 1.11 ± 0.21 | 82.7 ± 1.2 | – | 0.701 ± 0.058 | – | – | – |
| CN1CC[C@]2(C)c3cc(O)ccc3CC1C2N(C)C(=O)c1ccccc1C(=O)O (stereo in doubt) [Compound 49, 2-(((2R,6R,11S)-8-hydroxy-3,6-dimethyl-1,2,3,4,5,6-hexahydro-2,6-methanobenzo[d]azocin-11-yl)(methyl)carbamoyl)benzoic acid] | > 20 | 31.3 ± 5.36 | > 20 | – | – | – | – |
| COc1ccc2c(c1)[C@@]1(C)CCN(C)C(C2)[C@@H]1c1cccc(C#N)c1 [Compound 36, 3-((6S,11R)-8-methoxy-3,6-dimethyl-1,2,3,4,5,6-hexahydro-2,6-methanobenzo[d]azocin-11-yl)benzonitrile] | > 20 | – | – | 4.19 ± 1.05 | – | – | – |
| CN1CC[C@]2(C)c3cc(O)ccc3C[C@@H]1[C@H]2COc1cccc(C(=O)O)c1 [Compound 41, 3-(((2R,6S,11S)-8-hydroxy-3,6-dimethyl-1,2,3,4,5,6-hexahydro-2,6-methanobenzo[d]azocin-11-yl)methoxy)benzoic acid] | 1.22 ± 0.235 | 46 ± 3.79 | – | 1.88 ± 0.28 | – | – | – |
| COc1ccc2c(c1)[C@@]1(C)CCN(C)[C@@H](C2)C1=NNC(=O)c1ccc(F)cc1 [Compound 26, 4-fluoro-N′-((2S,6R)-8-methoxy-3,6-dimethyl-1,2,3,4,5,6-hexahydro-2,6-methanobenzo[d]azocin-11-ylidene)benzohydrazide] | – | – | > 20 | – | 1.19 ± 0.0939 | 91 ± 7.09 | – |
| CN(C)C(=O)C(CCN1CC[C@]2(C)c3cc(O)ccc3CC1C2N(C)C(=O)Nc1ccc(C#N)cc1)(c1ccccc1)c1ccccc1 (stereo in doubt) [Compound 84, 4-((2R,6R,11S)-11-(3-(4-cyanophenyl)-1-methylureido)-8-hydroxy-6-methyl-1,2,5,6-tetrahydro-2,6-methanobenzo[d]azocin-3(4H)-yl)-N,N-dimethyl-2,2-diphenylbutanamide] | – | – | – | 0.269 ± 0.0277 | – | 90.7 ± 1.86 | 0.0839 ± 0.0133 |
| CN1CC[C@]2(C)c3cc(O)ccc3CC1C2N(C)C(=O)CCC(=O)O (stereo in doubt) [Compound 28, 4-(((2R,6R,11S)-8-hydroxy-3,6-dimethyl-1,2,3,4,5,6-hexahydro-2,6-methanobenzo[d]azocin-11-yl)(methyl)amino)-4-oxobutanoic acid] | – | – | – | 18.2 | – | 74.7 ± 4.63 | 1.56 ± 0.106 |
| COc1ccc2c(c1)[C@@]1(C)CCN(CC3CC3)[C@H](C2)[C@H]1N(C)C(=O)/C=C\c1ccoc1 [Compound 86, (Z)—N-((2R,6R,11S)-3-(cyclopropylmethyl)-8-methoxy-6-methyl-1,2,3,4,5,6-hexahydro-2,6-methanobenzo[d]azocin-11-yl)-3-(furan-3-yl)-N-methylacrylamide] | – | – | – | 0.979 ± 0.146 | – | 14.7 ± 0.88 | 2.15 ± 0.21 |
| CN1CC[C@]2(C)c3cc(O)ccc3C[C@@H]1[C@H]2N(C)C(=O)Nc1ccc(C#N)cc1 [Compound 79, 3-(4-cyanophenyl)-1-((2R,6R,11S)-8-hydroxy-3,6-dimethyl-1,2,3,4,5,6-hexahydro-2,6-methanobenzo[d]azocin-11-yl)-1-methylurea] | – | – | – | 3.14 ± 0.805 | – | 49 ± 3.46 | 2.2 ± 0.668 |
